These results are taken from patent US20240425478A1, “CYCLOPENTYLPYRAZOLE CDK2 INHIBITORS” (Genentech, Inc., priority 2021, published 2024).

The target in experiment [1] is T1, Cyclin Dependent Kinase 4/Cyclin D3 (CDK4-cycD3) (Homo sapiens, UniProt P11802).
T1 construct: purchased Carna Biosciences 04-105
Kind of experiment: CDK4-cycD3 TR-FRET (LANCE) enzyme assay. In kind it is biochemical. Particulars: Table O, enzymatic assay. In outline:
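Compound dose responses pre-incubated 30 min with enzyme mix in 50 mM HEPES pH 7.5, 10 mM MgCl2, 2 mM TCEP, 0.05% BGG, 0.01% Brij 35. Reaction quenched with EDTA (15 mM final); Eu-anti-phospho-4E-BP1 TR-FRET detection, acceptor/donor ratio. Ki derived by Morrison equation.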
On the technique in general: Time-resolved FRET reads energy transfer from a long-lived donor to a nearby acceptor.

Experiment [2] deals with T2, Cyclin Dependent Kinase 1/Cyclin A2 (CDK1-cycA2) (Homo sapiens, UniProt P06493).
T2 construct: purchased ProQinase 0134-0054-1
T2 sequence (P06493 whole entry): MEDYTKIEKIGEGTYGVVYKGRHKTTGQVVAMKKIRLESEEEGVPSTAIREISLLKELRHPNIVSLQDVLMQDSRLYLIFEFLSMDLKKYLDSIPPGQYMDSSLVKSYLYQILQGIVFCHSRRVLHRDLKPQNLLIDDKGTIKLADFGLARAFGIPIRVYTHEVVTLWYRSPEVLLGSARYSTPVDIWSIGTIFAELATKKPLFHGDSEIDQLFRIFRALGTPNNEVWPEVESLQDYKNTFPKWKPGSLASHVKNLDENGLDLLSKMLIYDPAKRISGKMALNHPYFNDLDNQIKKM
T2 sequence (P20248 whole entry partner): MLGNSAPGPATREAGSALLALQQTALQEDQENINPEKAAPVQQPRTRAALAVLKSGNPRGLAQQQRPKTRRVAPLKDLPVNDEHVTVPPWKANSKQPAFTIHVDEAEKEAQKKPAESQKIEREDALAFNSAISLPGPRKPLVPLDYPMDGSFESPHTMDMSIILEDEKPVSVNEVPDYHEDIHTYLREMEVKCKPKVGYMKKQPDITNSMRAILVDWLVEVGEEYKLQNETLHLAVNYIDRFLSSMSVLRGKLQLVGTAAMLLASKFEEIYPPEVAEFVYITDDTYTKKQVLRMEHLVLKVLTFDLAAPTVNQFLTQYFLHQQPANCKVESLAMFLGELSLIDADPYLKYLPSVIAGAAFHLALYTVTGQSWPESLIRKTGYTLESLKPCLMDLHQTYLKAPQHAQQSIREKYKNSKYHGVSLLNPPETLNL
Kind of experiment: CDK1-cycA2 TR-FRET (Lance) enzyme assay. In kind it is biochemical. As to conditions: Table O, enzymatic assay. In outline:
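TR-FRET (Lance) detection of phospho-4E-BP1 with a europium-labelled antibody after EDTA quench (15 mM final); signal taken as acceptor/donor ratio. Enzyme and compound were pre-incubated 30 min in HEPES pH 7.5 buffer with MgCl2, TCEP, BGG and Brij 35. Ki derived by Morrison fit.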

In another experiment the test system is HCT116 cells. Kind of experiment: p-H3 HCT-116 mitotic release cell proliferation assay (cellular CDK1). The experiment is classed as cell-based. Particulars: Homo sapiens, HCT-116; Table O, cellular assay; read-out: CDK1 p-H3 IC50. The procedure: Inhibition of cellular CDK1 determined by release of cells from nocodazole-induced mitotic arrest, as measured by decrease in phospho-Histone H3. Histone H3 (Ser 10) level is detected in cell lysates by producing a Fluorescence Resonance Energy Transfer (FRET) signal between two antibodies, Phospho-Histone H3 Cryptate (acting as the donor) and Phospho-Histone H3 d2 (acting as the acceptor).
Plates are allowed to rest overnight at 37° C./5% CO2. The following morning, nocodazole is diluted in complete medium, and 5 μL is added to each test well and positive control well for a final concentration of 500 nM. Plates are then incubated for 16 hours at 37° C./5% CO2. […] 10 μL of diluted compound is then transferred to the cell plate (final DMSO concentration 0.1%). Cell plates are then incubated for 4 hours in 37° C. 5% CO2. A cell lysis buffer is prepared on ice using reagents from the Phospho-Histone H3 (Ser10) cellular kit (Cisbio-64HH3PEG). Supernatant is discarded from the cell plate and 80 μL of the supplemented cell lysis buffer (1:99 dilution of the Blocking Reagent and the 1× cell lysis buffer provided in the kit) is added to each of the experimental wells. The cell lysis reaction is allowed to proceed at room temperature while shaking vigorously for 30 minutes. The 384-well HTRF (Homogeneous Time Resolved Fluorescence) plate is prepared by adding 2 μL of each diluted antibody (Phospho-Histone H3 Cryptate antibody and Phospho-Histone H3 d2 antibody diluted 19:1 in a detection buffer) and 12 μL of the supplemented cell lysis buffer to each well in the HTRF plate. 4 μL of the cell lysate is added to the prepared HTRF plate which is then sealed and the reaction is allowed to proceed for a minimum of 2 hours at room temperature.

The target in experiment [3] is T3, Cyclin Dependent Kinase 2/Cyclin E1 (CDK2-cycE1) (Homo sapiens, UniProt P24941).
T3 construct: purchased ProQinase 0050-0055-1
Kind of experiment: CDK2-cycE1 TR-FRET (LANCE) enzyme assay.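 On improvement in potency against CDK2 (Ki) over Comparator C: fold lower CDK2 Ki than comparator c (Ki 0.032 µM).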 The experiment is classed as biochemical. Particulars: for FS CDK1/CDK2 / FS CDK4/CDK2: fold selectivity; for increased fold-selectivity CDK1/CDK2 over Comparator C: (+) sign after FS CDK1/CDK2; for increased fold-selectivity CDK4/CDK2 over Comparator C: (+) sign after FS CDK4/CDK2. In outline:
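Kinase reaction buffer: 50 mM HEPES pH 7.5, 10 mM MgCl2, 2 mM TCEP, 0.05% BGG, 0.01% Brij 35, with 30 min compound–enzyme pre-incubation.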

The test system of experiment [4] is OVISE (JCRB1043, CCNE1-amplified). As to the kind of experiment: OVISE EdU incorporation cell proliferation assay (CDK2-dependent). As to conditions: for pIC50: cellular assay, read-out: CDK2 OVISE IC50; for FS SKOV-3/OVISE / FS p-H3/OVISE: fold selectivity; for FS p-H3/OVISE: cellular p-H3 IC50 over OVISE IC50; for increased fold-selectivity SKOV-3/OVISE over Comparator C: (+) sign after FS SKOV-3/OVISE; for improvement in CDK2 OVISE cell potency over Comparator C: in brackets after OVISE IC50, Comparator C 5.5 μM. In kind it is cell-based. The procedure, abridged:
(§1)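 EdU incorporation (0.5 μM final, last 8 h) follows a 16 h compound exposure at 37 °C, 5% CO2 in RPMI plus 10% FBS, 0.5% DMSO. After fixation, imaging scores EdU-positive cells; a 4-parameter logistic fit of that fraction gives IC50.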

Another experiment has as its system SKOV-3 (ATCC HTB-77). Kind of experiment: SKOV-3 EdU incorporation cell proliferation assay (CDK4/6-dependent). The experiment is classed as cell-based. As to conditions: Homo sapiens, cellular assay, read-out: CDK4/6 SKOV-3 IC50. In outline: as §1
The mark [5] stands for this setting: Table O, enzymatic assay, read-out: CDK2 Ki.
Setting [6] is: Table O, enzymatic CDK1 Ki over CDK2 Ki.
Setting [7] is: Table O, enzymatic CDK4 Ki over CDK2 Ki.
The mark [8] stands for this setting: Table Q, enzymatic assay, read-out: CDK2 Ki.
Where [9] appears, read: Table O, cellular SKOV-3 IC50 over OVISE IC50.

pIC50, pKi: −log10 of the molar value. Like-named read-outs stand apart in the source and are kept apart here.

T1 sequence (P11802 whole entry): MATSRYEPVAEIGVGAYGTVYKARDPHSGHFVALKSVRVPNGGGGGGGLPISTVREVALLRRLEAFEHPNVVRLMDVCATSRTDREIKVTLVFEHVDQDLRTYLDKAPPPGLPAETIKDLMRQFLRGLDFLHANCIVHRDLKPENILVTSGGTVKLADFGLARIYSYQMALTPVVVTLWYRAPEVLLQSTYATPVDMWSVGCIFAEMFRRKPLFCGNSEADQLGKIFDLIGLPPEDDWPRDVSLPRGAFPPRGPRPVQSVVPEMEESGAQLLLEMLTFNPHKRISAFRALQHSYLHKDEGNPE
T1 sequence (P30281 whole entry partner): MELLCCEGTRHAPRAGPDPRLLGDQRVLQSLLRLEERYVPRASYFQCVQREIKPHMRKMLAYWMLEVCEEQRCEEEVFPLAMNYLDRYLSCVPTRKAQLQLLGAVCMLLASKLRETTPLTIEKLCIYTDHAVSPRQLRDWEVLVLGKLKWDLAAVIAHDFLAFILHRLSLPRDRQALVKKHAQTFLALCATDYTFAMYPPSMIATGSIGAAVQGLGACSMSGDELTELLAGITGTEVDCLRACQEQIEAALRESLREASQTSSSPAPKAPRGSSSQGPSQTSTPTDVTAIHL

In the case of `CC(C)NC(=O)O[C@@H]1CC[C@H](c2cc(Nc3cncnc3)n[nH]2)C1` [Example 2B, (1R,3S)-3-(3-(pyrimidin-5-ylamino)-1H-pyrazol-5-yl)cyclopentyl isopropylcarbamate], the pKi in experiment [1] is 6.41; in experiment [2] it was 6.80; in experiment [3] (setting [5]), 8.47; in experiment [3] (setting [8]) it was 8.47. In addition, the pIC50 in the experiment on HCT116 cells is 5.54; in experiment [4] (Table O), 6.64; in the experiment on SKOV-3 (ATCC HTB-77) (SK-OV-3, Table O), < 4.70; in the experiment with SKOV-3 (ATCC HTB-77) (SK-OV-3, Table Q), < 4.70. Also, the “improvement in potency against CDK2 (Ki) over Comparator C” value (“improvement … (Ki) over Comparator C” below) in experiment [3] is recorded as 9 fold. The “FS CDK1/CDK2” value was determined as 47 in experiment [3] (setting [6]) and 47 in experiment [3] (Table Q, enzymatic). The “FS CDK4/CDK2” value in experiment [3] (setting [7]) stood at 120; in experiment [3] (Table Q, enzymatic), 120. For the same compound, in experiment [3] (Table Q), the “increased fold-selectivity CDK1/CDK2 over Comparator C” value (“increased fold-selectivity CDK1/CDK2” for short) is “(+) (The (+) sign in Table Q signifies desirable increased fold-selectivity of the exemplary compounds over Comparator C)”. The “increased fold-selectivity CDK4/CDK2 over Comparator C” value (from here on “increased fold-selectivity CDK4/CDK2”) in experiment [3] (Table Q) is “(+) (The (+) sign in Table Q signifies desirable increased fold-selectivity of the exemplary compounds over Comparator C)”. Moreover, the “FS SKOV-3/OVISE” value in experiment [4] (setting [9]) is given as >70; in experiment [4] (Table Q, cellular), > 70. Further, in experiment [4] (Table O), the “FS p-H3/OVISE” value is given as 1.1. The “increased fold-selectivity SKOV-3/OVISE over Comparator C” value (from here on “increased fold-selectivity SKOV-3/OVISE”) in experiment [4] (Table Q) is recorded as “(+) (The (+) sign in Table Q signifies desirable increased fold-selectivity of the exemplary compounds over Comparator C)”. In addition, in experiment [4] (Table Q), the “improvement in CDK2 OVISE cell potency over Comparator C” value stood at 24 fold.
For the compound `CC(C)NC(=O)O[C@@H]1CC[C@H](c2cc(Nc3ccncn3)n[nH]2)C1` [Example 2C, (1R,3S)-3-(3-(pyrimidin-4-ylamino)-1H-pyrazol-5-yl)cyclopentyl isopropylcarbamate], the pKi in experiment [1] is 7.02; in experiment [2], 7.37; in experiment [3] (setting [5]), 8.96; in experiment [3] (setting [8]) it was 8.96. Moreover, the pIC50 in the experiment with HCT116 cells was 7.28; in experiment [4] (Table O), 6.96; in the experiment with SKOV-3 (ATCC HTB-77) (SK-OV-3, Table O), 5.39; in the experiment with SKOV-3 (ATCC HTB-77) (SK-OV-3, Table Q), 5.39. In experiment [3], the “improvement … (Ki) over Comparator C” value came to 32 fold. Further, the “FS CDK1/CDK2” value in experiment [3] (setting [6]) was found to be 39; in experiment [3] (Table Q, enzymatic) it was 39. Moreover, the “FS CDK4/CDK2” value in experiment [3] (setting [7]) was 86; in experiment [3] (Table Q, enzymatic), 86. In addition, the “increased fold-selectivity CDK1/CDK2” value in experiment [3] (Table Q) was “(+) (The (+) sign in Table Q signifies desirable increased fold-selectivity of the exemplary compounds over Comparator C)”. For the same compound, the “increased fold-selectivity CDK4/CDK2” value in experiment [3] (Table Q) is given as “(+) (The (+) sign in Table Q signifies desirable increased fold-selectivity of the exemplary compounds over Comparator C)”. Moreover, the “FS SKOV-3/OVISE” value in experiment [4] (setting [9]) amounted to 37; in experiment [4] (Table Q, cellular), 37. The “FS p-H3/OVISE” value in experiment [4] (Table O) was found to be 0.47. Further, the “increased fold-selectivity SKOV-3/OVISE” value in experiment [4] (Table Q) is “(+) (The (+) sign in Table Q signifies desirable increased fold-selectivity of the exemplary compounds over Comparator C)”. Also, in experiment [4] (Table Q), the “improvement in CDK2 OVISE cell potency over Comparator C” value worked out at 50 fold.
For the compound `CC(C)NC(=O)O[C@@H]1CC[C@H](c2cc(Nc3cnccn3)n[nH]2)C1` [Example 2E, (1R,3S)-3-(3-(pyrazin-2-ylamino)-1H-pyrazol-5-yl)cyclopentyl isopropylcarbamate], the pKi was 8.13 in experiment [1]; 8.08 in experiment [2]; 9.89 in experiment [3] (setting [5]); 9.89 in experiment [3] (setting [8]); ≥ 9.00 in experiment [3] (read-out: CDK2 activity / potency (enzymatic assay)). Further, the pIC50 in the experiment with HCT116 cells was 7.85; in experiment [4] (Table O), 7.80; in the experiment on SKOV-3 (ATCC HTB-77) (SK-OV-3, Table O) it was 6.89; in the experiment with SKOV-3 (ATCC HTB-77) (SK-OV-3, Table Q) it was 6.89. In addition, the “improvement … (Ki) over Comparator C” value in experiment [3] is 246 fold. Moreover, the “FS CDK1/CDK2” value in experiment [3] (setting [6]) was found to be 65; in experiment [3] (Table Q, enzymatic), 65. The “FS CDK4/CDK2” value amounted to 57 in experiment [3] (setting [7]) and 57 in experiment [3] (Table Q, enzymatic). The “increased fold-selectivity CDK1/CDK2” value in experiment [3] (Table Q) is given as “(+) (The (+) sign in Table Q signifies desirable increased fold-selectivity of the exemplary compounds over Comparator C)”. In experiment [3] (Table Q), the “increased fold-selectivity CDK4/CDK2” value is recorded as “(+) (The (+) sign in Table Q signifies desirable increased fold-selectivity of the exemplary compounds over Comparator C)”. Moreover, the “FS SKOV-3/OVISE” value in experiment [4] (setting [9]) is recorded as 8.1; in experiment [4] (Table Q, cellular) it was 8.1. Further, in experiment [4] (Table O), the “FS p-H3/OVISE” value is given as 0.88. The “increased fold-selectivity SKOV-3/OVISE” value in experiment [4] (Table Q) is given as “(+) (The (+) sign in Table Q signifies desirable increased fold-selectivity of the exemplary compounds over Comparator C)”. Moreover, in experiment [4] (Table Q), the “improvement in CDK2 OVISE cell potency over Comparator C” value turned out to be 344 fold.
As for `CC(C)NC(=O)O[C@@H]1CC[C@H](c2cc(Nc3ccc(-n4ccnc4)cn3)n[nH]2)C1` [Example 2EE, (1R,3S)-3-(3-((5-(1H-imidazol-1-yl)pyridin-2-yl)amino)-1H-pyrazol-5-yl)cyclopentyl isopropylcarbamate], the pKi in experiment [1] is 6.72; in experiment [2], 6.54; in experiment [3] (setting [5]) it was 8.49; in experiment [3] (setting [8]), 8.49. Besides, the pIC50 is 6.05 in the experiment on HCT116 cells; 6.47 in experiment [4] (Table O); 5.01 in the experiment with SKOV-3 (ATCC HTB-77) (SK-OV-3, Table O); 5.01 in the experiment with SKOV-3 (ATCC HTB-77) (SK-OV-3, Table Q). The “improvement … (Ki) over Comparator C” value in experiment [3] is listed as 10 fold. Also, the “FS CDK1/CDK2” value in experiment [3] (setting [6]) worked out at 91; in experiment [3] (Table Q, enzymatic) it was 91. Further, the “FS CDK4/CDK2” value worked out at 59 in experiment [3] (setting [7]) and 59 in experiment [3] (Table Q, enzymatic). For the same compound, in experiment [3] (Table Q), the “increased fold-selectivity CDK1/CDK2” value is listed as “(+) (The (+) sign in Table Q signifies desirable increased fold-selectivity of the exemplary compounds over Comparator C)”. The “increased fold-selectivity CDK4/CDK2” value in experiment [3] (Table Q) is listed as “(+) (The (+) sign in Table Q signifies desirable increased fold-selectivity of the exemplary compounds over Comparator C)”. The “FS SKOV-3/OVISE” value in experiment [4] (setting [9]) is on record as 29; in experiment [4] (Table Q, cellular) it was 29. Moreover, the “FS p-H3/OVISE” value in experiment [4] (Table O) came out at 2.6. Moreover, the “increased fold-selectivity SKOV-3/OVISE” value in experiment [4] (Table Q) is given as “(+) (The (+) sign in Table Q signifies desirable increased fold-selectivity of the exemplary compounds over Comparator C)”. In addition, the “improvement in CDK2 OVISE cell potency over Comparator C” value in experiment [4] (Table Q) stood at 16 fold.
